# PubChem BioAssay AID1259407 (Chemical Carcinogenesis Research Information System (CCRIS), 2018)
# Activity calls are given as the source filed them. The rule behind the calls is not given here.
# Tested on: CCRIS mutagenicity, Ames/micronucleus/aberration tests
# Assay: CCRIS mutagenicity studies
# [1] = Test System: AMES SALMONELLA TYPHIMURIUM, Strain/Indicator: TA98, Metabolic Activation: NONE, Method: STANDARD PLATE
# [2] = Test System: AMES SALMONELLA TYPHIMURIUM, Strain/Indicator: TA98, Metabolic Activation: RAT, LIVER, S-9, AROCLOR 1254, Method: STANDARD PLATE
smiles,measurement,setting,value
CCCCCCC(=O)OCC,mutagenic call,"Test System: AMES SALMONELLA TYPHIMURIUM, Strain/Indicator: TA97, Metabolic Activation: NONE, Method: PREINCUBATION",inactive; negative
same,mutagenic call,"Test System: AMES SALMONELLA TYPHIMURIUM, Strain/Indicator: TA97, Metabolic Activation: RAT, LIVER, S-9, AROCLOR 1254, Method: PREINCUBATION",inactive; negative
same,mutagenic call,"Test System: AMES SALMONELLA TYPHIMURIUM, Strain/Indicator: TA102, Metabolic Activation: NONE, Method: PREINCUBATION",inactive; negative
same,mutagenic call,"Test System: AMES SALMONELLA TYPHIMURIUM, Strain/Indicator: TA102, Metabolic Activation: RAT, LIVER, S-9, AROCLOR 1254, Method: PREINCUBATION",inactive; negative
CC(C)(C)OO,mutagenic call,"End Point: In vitro micronucleus, Test System: Chinese hamster V79 cells, Metabolic Activation: None",active; positive (hibiscus tiliaceus l methanolic extract at doses above 0.010 mg/ml had
same,mutagenic call,"Test System: AMES SALMONELLA TYPHIMURIUM, Strain/Indicator: TA98, Metabolic Activation: HAMSTER, LIVER, S-9, AROCLOR 1254, Method: PREINCUBATION",inactive; negative
same,mutagenic call,"Test System: AMES SALMONELLA TYPHIMURIUM, Strain/Indicator: TA98, Metabolic Activation: NONE, Method: PREINCUBATION",inactive; negative
same,mutagenic call,"Test System: AMES SALMONELLA TYPHIMURIUM, Strain/Indicator: TA98, Metabolic Activation: RAT, LIVER, S-9, AROCLOR 1254, Method: PREINCUBATION",inactive; negative
same,mutagenic call,"Test System: AMES SALMONELLA TYPHIMURIUM, Strain/Indicator: TA100, Metabolic Activation: HAMSTER, LIVER, S-9, AROCLOR 1254, Method: PREINCUBATION",inactive; negative
same,mutagenic call,"Test System: AMES SALMONELLA TYPHIMURIUM, Strain/Indicator: TA100, Metabolic Activation: NONE, Method: PREINCUBATION",inactive; negative
same,mutagenic call,"Test System: AMES SALMONELLA TYPHIMURIUM, Strain/Indicator: TA100, Metabolic Activation: RAT, LIVER, S-9, AROCLOR 1254, Method: PREINCUBATION",inactive; negative
same,mutagenic call,"Test System: AMES SALMONELLA TYPHIMURIUM, Strain/Indicator: TA102, Metabolic Activation: NONE, Method: STANDARD PLATE",active; positive
same,mutagenic call,"Test System: AMES SALMONELLA TYPHIMURIUM, Strain/Indicator: TA1535, Metabolic Activation: HAMSTER, LIVER, S-9, AROCLOR 1254, Method: PREINCUBATION",inactive; negative
same,mutagenic call,"Test System: AMES SALMONELLA TYPHIMURIUM, Strain/Indicator: TA1535, Metabolic Activation: NONE, Method: PREINCUBATION",inactive; negative
same,mutagenic call,"Test System: AMES SALMONELLA TYPHIMURIUM, Strain/Indicator: TA1535, Metabolic Activation: RAT, LIVER, S-9, AROCLOR 1254, Method: PREINCUBATION",inactive; negative
same,mutagenic call,"Test System: AMES SALMONELLA TYPHIMURIUM, Strain/Indicator: TA1537, Metabolic Activation: HAMSTER, LIVER, S-9, AROCLOR 1254, Method: PREINCUBATION",active; positive
same,mutagenic call,"Test System: AMES SALMONELLA TYPHIMURIUM, Strain/Indicator: TA1537, Metabolic Activation: NONE, Method: PREINCUBATION",active; positive
same,mutagenic call,"Test System: AMES SALMONELLA TYPHIMURIUM, Strain/Indicator: TA1537, Metabolic Activation: RAT, LIVER, S-9, AROCLOR 1254, Method: PREINCUBATION",active; positive
same,mutagenic call,"Test System: AMES SALMONELLA TYPHIMURIUM, Strain/Indicator: TA2638, Metabolic Activation: NONE, Method: STANDARD PLATE",active; positive
same,mutagenic call,"Test System: AMES SALMONELLA TYPHIMURIUM, Strain/Indicator: TA2638A, Metabolic Activation: NONE, Method: STANDARD PLATE",active; positive
same,mutagenic call,"Test System: E. COLI, Strain/Indicator: IC202, Metabolic Activation: NONE, Method: STANDARD PLATE",active; positive
same,mutagenic call,"Test System: E. COLI, Strain/Indicator: IC203, Metabolic Activation: NONE, Method: STANDARD PLATE",active; positive
same,mutagenic call,"Test System: E. COLI, Strain/Indicator: IC5059, Metabolic Activation: NONE, Method: STANDARD PLATE",active; positive
same,mutagenic call,"Test System: E. COLI, Strain/Indicator: IC5064, Metabolic Activation: NONE, Method: STANDARD PLATE",active; positive
same,mutagenic call,"Test System: E. COLI, Strain/Indicator: IC5184, Metabolic Activation: NONE, Method: STANDARD PLATE",active; positive
same,mutagenic call,"Test System: E. COLI, Strain/Indicator: IC5185, Metabolic Activation: NONE, Method: STANDARD PLATE",active; positive
same,mutagenic call,"Test System: E. COLI, Strain/Indicator: WP2 (PKM101), Metabolic Activation: NONE, Method: STANDARD PLATE",active; positive
same,mutagenic call,"Test System: E. COLI, Strain/Indicator: WP2 UVRA (PKM101), Metabolic Activation: NONE, Method: STANDARD PLATE",active; positive
same,mutagenic call,"Test System: E. coli, Strain/Indicator: WP2 IC185 trpE65, Metabolic Activation: None, Method: Plate incorporation (Test material solvent: 1 x M9 buffer)","active; positive. linalool, myrcene and eycalyptol did not inhibit mutagenesis."
same,mutagenic call,"Test System: E. coli, Strain/Indicator: WP2 IC202 trpE65 oxyR/pKM101, Metabolic Activation: None, Method: Plate incorporation (Test material solvent: 1 x M9 buffer)","active; positive. linalool, myrcene and eycalyptol inhibited mutagenesis."
O=c1oc2c([N+](=O)[O-])cccc2c2ccccc12,mutagenic call,"Test System: AMES SALMONELLA TYPHIMURIUM, Strain/Indicator: TA98(1,8-DNP6), Metabolic Activation: NONE, Method: MICROSUSPENSION",active; positive
same,mutagenic call,"Test System: AMES SALMONELLA TYPHIMURIUM, Strain/Indicator: TA98(1,8-DNP6), Metabolic Activation: NONE, Method: STANDARD PLATE",active; positive
same,mutagenic call,"Test System: AMES SALMONELLA TYPHIMURIUM, Strain/Indicator: TA98(NR), Metabolic Activation: NONE, Method: MICROSUSPENSION",active; positive
same,mutagenic call,"Test System: AMES SALMONELLA TYPHIMURIUM, Strain/Indicator: TA98(NR), Metabolic Activation: NONE, Method: STANDARD PLATE",inactive; negative
same,mutagenic call,"Test System: AMES SALMONELLA TYPHIMURIUM, Strain/Indicator: TA98(NR), Metabolic Activation: RAT, LIVER, S-9, AROCLOR 1254, Method: STANDARD PLATE",active; positive
same,mutagenic call,"Test System: AMES SALMONELLA TYPHIMURIUM, Strain/Indicator: TA98, Metabolic Activation: NONE, Method: MICROSUSPENSION",active; positive
same,mutagenic call,[1],active; positive
same,mutagenic call,"Test System: AMES SALMONELLA TYPHIMURIUM, Strain/Indicator: TA98, Metabolic Activation: RAT, LIVER, S-9, AROCLOR 1254, Method: MICROSUSPENSION",active; positive
same,mutagenic call,[2],active; positive
O=[N+]([O-])c1ccc(-c2ncn[nH]2)o1,mutagenic call,"Test System: E. COLI, Strain/Indicator: WP2 UVRA, Metabolic Activation: NONE, Method: SPOT",active; positive
Nc1nc(=S)c2[nH]cnc2[nH]1,mutagenic call,"End Point: IN VITRO CHROMOSOMAL ABERRATIONS, Test System: HUMAN HCT116/3-6 CELLS, Metabolic Activation: NONE",active; positive
same,mutagenic call,"End Point: IN VITRO CHROMOSOMAL ABERRATIONS, Test System: HUMAN HCT116 CELLS, Metabolic Activation: NONE",active; positive
same,mutagenic call,"End Point: IN VITRO CHROMOSOMAL ABERRATIONS, Test System: HUMAN MT1 CELLS, Metabolic Activation: NONE",active; positive
same,mutagenic call,"End Point: IN VITRO CHROMOSOMAL ABERRATIONS, Test System: HUMAN TK6 CELLS, Metabolic Activation: NONE",active; positive
CCC(=O)Nc1ccc(Cl)c(Cl)c1,mutagenic call,"Test System: AMES SALMONELLA TYPHIMURIUM, Strain/Indicator: TA97, Metabolic Activation: NONE, Method: STANDARD PLATE",inactive; negative
same,mutagenic call,"Test System: AMES SALMONELLA TYPHIMURIUM, Strain/Indicator: TA97, Metabolic Activation: RAT, LIVER, S-9, AROCLOR 1254, Method: STANDARD PLATE",inactive; negative
same,mutagenic call,[1],inactive; negative
same,mutagenic call,[2],inactive; negative
same,mutagenic call,"Test System: AMES SALMONELLA TYPHIMURIUM, Strain/Indicator: TA100, Metabolic Activation: NONE, Method: STANDARD PLATE",inactive; negative
same,mutagenic call,"Test System: AMES SALMONELLA TYPHIMURIUM, Strain/Indicator: TA100, Metabolic Activation: RAT, LIVER, S-9, AROCLOR 1254, Method: STANDARD PLATE",inactive; negative
same,mutagenic call,"Test System: AMES SALMONELLA TYPHIMURIUM, Strain/Indicator: TA104, Metabolic Activation: NONE, Method: STANDARD PLATE",inactive; negative
same,mutagenic call,"Test System: AMES SALMONELLA TYPHIMURIUM, Strain/Indicator: TA104, Metabolic Activation: RAT, LIVER, S-9, AROCLOR 1254, Method: STANDARD PLATE",inactive; negative
same,mutagenic call,"Test System: CHINESE HAMSTER OVARY, Strain/Indicator: CHO-K1-BH4 (HGPRT), Metabolic Activation: NONE",inactive; negative
same,mutagenic call,"Test System: CHINESE HAMSTER OVARY, Strain/Indicator: CHO-K1-BH4 (HGPRT), Metabolic Activation: RAT, LIVER, S-9, AROCLOR 1254",inactive; negative
